{
  "source": "patent US20100267803A1",
  "about": "“Regulators Of Fat Metabolism As Anti-Cancer Targets” (The Research Foundation of State University Of New York, priority 2008, published 2010)",
  "type_in_all_cases": "cell-based, human",
  "key": {"BMAL1 reporter": {"system": "BMAL1 reporter", "experiment": "BMAL1 luciferase reporter assay in BT474 cells", "conditions": "20 μM GW9662 for 48 h", "protocol": "(§1) FIG. 2 NR1D1 and PBP are necessary for survival of ERBB2-positive cells. (a) PBP and NR1D1 mRNA levels of BT474 cells transfected with luciferase (control), PBP or NR1D1 shRNAs for 48 h, analyzed by qRT-PCRs. (Error bars are s.d from 3 experiments; ***P<0.003, **P=0.01, *P=0.02). (b) BMAL1 luciferase reporter activity of BT474 cells transfected with either empty vector (control), or NR1D1 shRNA for 48 h.\n(§2) FIG. 3 PPAR. inhibition impacts NR1D1 expression and ERBB2-positive cells viability. (a) Cell counts of BT474, MDA-MB-361, MCF-7 and HMEC cells treated with vehicle, 10 and 20 μM of the PPAR. antagonist GW9662 for 72 hrs. Results represented as % of control (vehicle). (Error bars are s.d from 3 individual experiments; *P>0.2, **P<0.05, ***P<0.002). (b) BT474 cells treated with vehicle or 20 μM of GW9662 for 48 h were immuno-stained for cleaved Caspase-3. (c) Quantification of Caspase-3 signal. […] (d) aP2 and NR1D1 mRNA levels of BT474 cells treated with vehicle (control) and 20 μM of GW9662 for 48 h, analyzed by qRT-PCRs. […]\nReporter assays. […] Cells were lysed 48 h post-transfection and firefly (reporter) and renilla luciferase activities were measured using the Dual-Luciferase Reporter Assay kit (Promega) on a BioTek Synergy HT reader. The ratio of Firefly to Renilla luciferase activity was calculated and presented as percentage of control."}, "BT474 cells": {"system": "BT474 cells", "experiment": "Apoptosis by cleaved Caspase-3 or activated Bax immunofluorescence", "conditions": "48 h of shRNA or 20 μM GW9662", "protocol": "Results are shown as percentage of control. (**P=0.03). (c) BT474 cells were transfected with luciferase (control), PBP and NR1D1 shRNAs and co-transfected with GFP. Green cells were counted at intervals and expressed as percentage of control. (Error bars are s.d from 3 individual experiments; *P<0.08, **P<0.03, ***P<0.005). (d) BT474 cells were transfected with luciferase (control), PBP or NR shRNAs for 48 h. Immunofluorescence was performed for cleaved Caspase-3 signal; cell nuclei were stained with Hoechst 33243. (e) Cells from […] were counted for cleaved Caspase-3 signal. (Error bars are s.d from 3 individual experiments; ***P<0.0003). (f) BT474 cells were transfected with luciferase (control) PBP, NR1D1 or PBP and NR1D1 shRNAs together and co-transfected with GFP. Transfected cells were counted at 24 h and 72 h and the 72 h-to-24 h ratio for each shRNA was calculated and expressed as % of the control shRNA (luciferase). (Error bars are s.d from 3 individual experiments; **P=0.01, ***P<0.002). (g) Cells from (f) were counted for cleaved Caspase-3 signal. (Error bars are s.d from 3 individual experiments; ***P<0.0001). (h) ERBB2 mRNA levels of BT474 cells transfected with luciferase (control), PBP or NR1D1 shRNAs for 48 h, analyzed by qRT-PCRs. (Error bars are s.d from 3 individual experiments; ***P=0.0001).\nas §2, with “(b) BT474 cells treated with vehicle or 20 μM of GW9662 for 48 h were immuno-stained for cleaved Caspase-3.” left out\nFIG. 5. (a) MDH1 and ME1 mRNA levels of BT474 cells treated with luciferase (control), PBP or NR1D1 shRNAs for 48 h, analyzed by qRT-PCRs. […] (d) Quantification of cleaved Caspase-3 signal from cells in (c). […]"}, "aP2 (FABP4) mRNA": {"system": "aP2 (FABP4) mRNA", "experiment": "qRT-PCR of aP2 mRNA in BT474 cells", "conditions": "20 μM GW9662 for 48 h", "protocol": "(§3) FIG. 3 PPAR. inhibition impacts NR1D1 expression and ERBB2-positive cells viability. (a) Cell counts of BT474, MDA-MB-361, MCF-7 and HMEC cells treated with vehicle, 10 and 20 μM of the PPAR. antagonist GW9662 for 72 hrs. Results represented as % of control (vehicle). (Error bars are s.d from 3 individual experiments; *P>0.2, **P<0.05, ***P<0.002). (b) BT474 cells treated with vehicle or 20 μM of GW9662 for 48 h were immuno-stained for cleaved Caspase-3. (c) Quantification of Caspase-3 signal. (Error bars are s.d from 3 individual experiments; ***P=0.002). (d) aP2 and NR1D1 mRNA levels of BT474 cells treated with vehicle (control) and 20 μM of GW9662 for 48 h, analyzed by qRT-PCRs. (Error bars are s.d from 3 experiments; ***P<0.0006. (e) BMAL1-luc activity of BT474 cells treated with vehicle or 20 μM of GW9662 for 48 h. (Error bars are s.d from 3 individual experiments; **P=0.03). (f) Total ERBB2 western blot of BT474 cells treated with vehicle or 20 μM GW9662 for 72h. GAPDH was used as control.\n(§4) Cell viability—apoptosis assays. […] At least 30 fields were imaged per single experiment. […] Immunoblotting. […] PCR reaction was run using standard conditions."}, "FADS2 mRNA": {"system": "FADS2 mRNA", "experiment": "qRT-PCR of FADS2 mRNA in BT474 cells", "conditions": "shRNA or 20 μM GW9662 for 48 h", "protocol": "(§5) FIG. 4 NR1D1 and PBP coordinate fatty acid metabolism in breast cancer cells. (a) BT474, MDA-MB-361, MCF-7 and HMEC cells were stained with Oil-Red O lipid and hematoxylin nuclear stains. (b) Fat stores were quantified by BODIPY 493/503 lipid probe staining (Error bars are s.d from 3 individual experiments). (c) FASN, ACLY, ACACA and FADS2 mRNA levels of BT474 cells treated with luciferase (control), PBP or NR1D1 shRNAs, or with vehicle and 20 μM of GW9662 for 48 h, analyzed by qRT-PCRs. (Error bars are s.d from 3 experiments; ***P<0.001, **P=0.005) (d) BT474 cells were transfected with FASN, ACLY and ACACA shRNAs and co-transfected with GFP. Transfected cells were counted at 24 h and 72 h and the 72h-to-24 h ratio for each shRNA was calculated and expressed as % of the control shRNA (luciferase). (Error bars are s.d from 3 individual experiments; **P<0.01, ***P<0.002). (e) BODIPY images and (f) quantification of BT474 cells transfected with luciferase (control), PBP or NR1D1 shRNAs and co-transfected with DsRed (Error bars are s.d from 3 individual experiments; ***P<0.03). Arrows indicate transfected cells.\nas §4"}, "ACACA mRNA": {"system": "ACACA mRNA", "experiment": "qRT-PCR of ACACA mRNA in BT474 cells", "conditions": "shRNA or 20 μM GW9662 for 48 h", "protocol": "as §5, §4"}, "ERBB2": {"system": "ERBB2", "experiment": "ERBB2 western blot of BT474 cells", "protocol": "as §3, §4"}, "ACLY mRNA": {"system": "ACLY mRNA", "experiment": "qRT-PCR of ACLY mRNA in BT474 cells", "conditions": "shRNA or 20 μM GW9662 for 48 h", "protocol": "as §5, §4"}, "NR1D1 mRNA": {"system": "NR1D1 mRNA", "experiment": "qRT-PCR of NR1D1 mRNA in BT474 cells", "conditions": "20 μM GW9662 for 48 h", "protocol": "as §1\nFIG. 3 PPAR. inhibition impacts NR1D1 expression and ERBB2-positive cells viability. (a) Cell counts of BT474, MDA-MB-361, MCF-7 and HMEC cells treated with vehicle, 10 and 20 μM of the PPAR. antagonist GW9662 for 72 hrs. Results represented as % of control (vehicle). (Error bars are s.d from 3 individual experiments; *P>0.2, **P<0.05, ***P<0.002). (b) BT474 cells treated with vehicle or 20 μM of GW9662 for 48 h were immuno-stained for cleaved Caspase-3. (c) Quantification of Caspase-3 signal. (Error bars are s.d from 3 individual experiments; ***P=0.002). (d) aP2 and NR1D1 mRNA levels of BT474 cells treated with vehicle (control) and 20 μM of GW9662 for 48 h, analyzed by qRT-PCRs. […]"}, "FASN mRNA": {"system": "FASN mRNA", "experiment": "qRT-PCR of FASN mRNA in BT474 cells", "conditions": "shRNA or 20 μM GW9662 for 48 h", "protocol": "as §5, §4"}, "[1]": {"system": "BT474, MDA-MB-361, MCF-7 and HMEC cells", "experiment": "Cell counts after PPARγ antagonist treatment", "conditions": "10 and 20 μM for 72 hrs; % of vehicle", "protocol": "as §3, §4"}},
  "data": [
    {"compound": "O=C(Nc1ccccc1)c1cc([N+](=O)[O-])ccc1Cl", "note": "[GW9662, reference compound]", "values": [
      {"measurement": "BMAL1 reporter activity", "setting": "BMAL1 reporter", "value": "increased BMAL1 reporter activity"},
      {"measurement": "apoptosis", "setting": "BT474 cells", "value": "apoptosis of BT474 cells"},
      {"measurement": "mRNA levels of aP2", "setting": "aP2 (FABP4) mRNA", "value": "decreased mRNA levels of aP2"},
      {"measurement": "FADS2 transcript levels", "setting": "FADS2 mRNA", "value": "downregulated"},
      {"measurement": "ACACA transcript level", "setting": "ACACA mRNA", "value": "reduced"},
      {"measurement": "ERBB2 protein levels", "setting": "ERBB2; 20 μM GW9662 for 72h", "value": "Neither ERBB2 protein levels (FIG. 3f), nor ERBB2 phosphorylation (FIG. S3d) were significantly affected"},
      {"measurement": "ERBB2 phosphorylation", "setting": "ERBB2; GW9662 treatment", "value": "Neither ERBB2 protein levels (FIG. 3f), nor ERBB2 phosphorylation (FIG. S3d) were significantly affected"},
      {"measurement": "ACLY transcript level", "setting": "ACLY mRNA", "value": "reduced"},
      {"measurement": "NR1D1 message levels", "setting": "NR1D1 mRNA", "value": "dramatically decreased"},
      {"measurement": "FASN transcript level", "setting": "FASN mRNA", "value": "reduced"},
      {"measurement": "sensitivity of cells to drug treatment (cell counts)", "setting": "[1]", "value": "ERBB2-positive cells were more sensitive to drug treatment than MCF-7 and HMEC cells"}
    ]}
  ]
}
